The supplement of paper PMC10307832

What was measured:
Experiment in all cases: relative viability (nuclei count vs DMSO), 5 days (fraction); higher = more cells survive
Ruxolitinib + Lapatinib = compound: N#CC[C@H](C1CCCC1)n1cc(-c2ncnc3[nH]ccc23)cn1 [Ruxolitinib] + CS(=O)(=O)CCNCc1ccc(-c2ccc3ncnc(Nc4ccc(OCc5cccc(F)c5)c(Cl)c4)c3c2)o1 [Lapatinib] (partner 2 µM)
How it was run: (§1)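 After 5 days of treatment, lung cancer cells in 1536-well plates were fixed and stained in a single step (final 0.05% Triton X-100, 1% formaldehyde, 1 ug/ml Hoechst) and their nuclei counted on 4× images. Treatment had been applied by pin tool the day after seeding as one drug alone or as a fixed anchor-drug dose with five library-drug doses (not always all listed) in √10 steps. Relative viability is the nuclei count of treated wells divided by that of vehicle wells, and values are medians of duplicate plates.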

Vismodegib + Trametinib = compound: CS(=O)(=O)c1ccc(C(=O)Nc2ccc(Cl)c(-c3ccccn3)c2)c(Cl)c1 [Vismodegib] + CC(=O)Nc1cccc(-n2c(=O)n(C3CC3)c(=O)c3c(Nc4ccc(I)cc4F)n(C)c(=O)c(C)c32)c1 [Trametinib] (partner 0.02 µM)
How it was run: as §1

Vismodegib + Olaparib = compound: CS(=O)(=O)c1ccc(C(=O)Nc2ccc(Cl)c(-c3ccccn3)c2)c(Cl)c1 [Vismodegib] + O=C(c1cc(Cc2n[nH]c(=O)c3ccccc23)ccc1F)N1CCN(C(=O)C2CC2)CC1 [Olaparib] (partner 8 µM)
How it was run: as §1

VE-821 + Alpelisib = compound: CS(=O)(=O)c1ccc(-c2cnc(N)c(C(=O)Nc3ccccc3)n2)cc1 [VE-821] + Cc1nc(NC(=O)N2CCC[C@H]2C(N)=O)sc1-c1ccnc(C(C)(C)C(F)(F)F)c1 [Alpelisib] (partner 2 µM)
How it was run: as §1

Cell Line | relative viability (Ruxolitinib + Lapatinib; first compound 0.08 µM) | relative viability (Ruxolitinib + Lapatinib; first compound 0.253 µM) | relative viability (Ruxolitinib + Lapatinib; first compound 0.8 µM) | relative viability (Ruxolitinib + Lapatinib; first compound 2.53 µM) | relative viability (Ruxolitinib + Lapatinib; first compound 8 µM) | relative viability (Vismodegib + Trametinib; first compound 0.08 µM) | relative viability (Vismodegib + Trametinib; first compound 0.253 µM) | relative viability (Vismodegib + Trametinib; first compound 0.8 µM) | relative viability (Vismodegib + Trametinib; first compound 2.53 µM) | relative viability (Vismodegib + Trametinib; first compound 8 µM) | relative viability (Vismodegib + Olaparib; first compound 0.08 µM) | relative viability (Vismodegib + Olaparib; first compound 0.253 µM) | relative viability (Vismodegib + Olaparib; first compound 0.8 µM) | relative viability (Vismodegib + Olaparib; first compound 2.53 µM) | relative viability (Vismodegib + Olaparib; first compound 8 µM) | relative viability (VE-821 + Alpelisib; first compound 0.08 µM) | relative viability (VE-821 + Alpelisib; first compound 0.253 µM) | relative viability (VE-821 + Alpelisib; first compound 0.8 µM) | relative viability (VE-821 + Alpelisib; first compound 2.53 µM) | relative viability (VE-821 + Alpelisib; first compound 8 µM)
LC-2-ad | 0.989 | 0.878 | 0.868 | 0.773 | 0.34 | 0.892 | 0.834 | 0.894 | 0.834 | 0.898 | 0.681 | 0.734 | 0.686 | 0.658 | 0.716 | 0.991 | 0.846 | 0.926 | 1.01 | 0.686
LCLC-97TM1 | 0.877 | 0.833 | 0.852 | 0.83 | 1.21 | 0.207 | 0.166 | 0.205 | 0.173 | 0.208 | 0.355 | 0.416 | 0.439 | 0.298 | 0.565 | 0.315 | 0.244 | 0.22 | 0.292 | 0.222
LK-2 | – | 0.893 | 1.23 | 0.997 | 0.964 | 0.645 | 0.726 | 0.628 | 0.831 | 0.615 | 0.379 | 0.574 | 0.956 | 0.638 | 0.604 | 1.14 | 1.17 | 0.925 | 1.29 | 0.672
LOU-NH91 | 0.786 | 0.666 | 0.844 | 0.764 | 0.865 | 0.762 | 0.804 | 0.8 | 0.786 | 0.772 | 0.873 | 0.907 | 0.936 | 0.904 | 0.917 | 0.747 | 0.738 | 0.66 | 0.75 | 0.702
LU99A | 1.11 | 0.954 | 1.13 | 0.754 | 0.675 | 0.586 | 0.524 | 0.536 | 0.531 | 0.539 | 0.306 | 0.278 | 0.292 | 0.267 | 0.247 | 0.585 | 0.512 | 0.444 | 0.414 | 0.277
LXF-289 | 0.849 | 0.891 | 0.861 | 0.825 | 0.786 | 0.675 | 0.654 | 0.723 | 0.664 | 0.648 | 1.05 | 1.01 | 1.11 | 1.02 | 0.94 | 1.14 | 1.06 | 1.02 | 1.2 | 1.18
NCI-H23 | 1.03 | 1.27 | 1.2 | 0.775 | 0.852 | 0.511 | 0.353 | 0.368 | 0.411 | 0.482 | 0.321 | 0.277 | 0.26 | 0.296 | 0.409 | 0.734 | 0.69 | 0.512 | 0.624 | 0.416
NCI-H322M | 0.638 | 0.68 | 0.67 | 0.687 | 0.873 | 0.52 | 0.507 | 0.522 | 0.518 | 0.525 | 0.753 | 0.679 | 0.695 | 0.704 | 0.776 | 0.728 | – | 0.763 | 0.881 | 0.612
NCI-H358 | 0.421 | 0.434 | 0.445 | 0.36 | 0.35 | 0.151 | 0.139 | 0.14 | 0.128 | 0.139 | 0.564 | 0.597 | 0.525 | 0.521 | 0.667 | 1.04 | 0.999 | 0.904 | 0.838 | 0.605
NCI-H460 | 0.95 | 1.06 | 1.21 | 0.759 | 1.08 | 0.175 | 0.132 | 0.127 | 0.141 | 0.107 | 0.413 | 0.409 | 0.437 | 0.382 | 0.439 | 0.561 | 0.394 | 0.23 | 0.279 | 0.0265
NCI-H520 | – | 0.815 | 1.04 | 0.588 | 0.671 | 0.702 | 0.554 | 0.768 | 0.692 | 0.74 | 0.314 | 0.366 | 0.397 | 0.281 | 0.354 | 0.953 | 1.1 | – | 0.883 | 0.784
NCI-H596 | 1.18 | 1.07 | 1.22 | 1.03 | 1.07 | 0.746 | 0.82 | 0.744 | 0.779 | 0.896 | 0.749 | 0.488 | 0.653 | 0.706 | 0.844 | 0.486 | 0.458 | 0.39 | 0.511 | 0.413
NCI-H647 | 1.11 | 1.09 | 1.19 | 0.651 | 1.02 | 0.446 | 0.486 | 0.517 | 0.409 | 0.55 | 0.66 | 0.508 | 0.669 | 0.368 | 0.479 | 1.17 | 1.07 | 0.944 | 0.901 | 0.424
NCI-H650 | – | 0.925 | 1.05 | 0.842 | 0.667 | 0.891 | 0.91 | 0.846 | 0.981 | 1.05 | 0.385 | 0.385 | 0.396 | 0.316 | 0.387 | 1.19 | 1.25 | 0.932 | 1.19 | 1.1
NCI-H661 | 0.518 | 0.564 | 0.614 | 0.452 | 0.606 | 0.549 | 0.611 | 0.649 | 0.558 | 0.622 | 0.837 | 0.69 | 0.745 | 0.715 | 0.718 | 0.693 | 0.705 | 0.573 | 0.765 | 0.559
NCI-H727 | 0.904 | 1.03 | 1.09 | 0.777 | 0.821 | 0.446 | 0.367 | 0.405 | 0.403 | 0.418 | 0.66 | 0.683 | 0.76 | 0.724 | 0.749 | 0.687 | 0.683 | 0.585 | 0.551 | 0.425
